Data on 2 molecules can be found in US20230203081A1, “LINCOSAMIDE ANTIBIOTICS AND USES THEREOF” (President and Fellows of Harvard College, priority 2020, published 2023).

One series deals with E. faecalis VRE. Description: MIC (CLSI), first E. faecalis VRE line of Table 4. The class given is cell-based. To be noted: Enterococcus faecalis, VRE. The protocol:
(§1) Minimum inhibitory concentrations (MICs) were determined by broth microdilution method or agar dilution method following the Clinical and Laboratory Standards Institute guidelines. Standard bacterial strains were obtained from American Type Culture Collection (ATCC). Other bacterial strains were obtained from hospitals and commercial sources, so noted in Table 11. Before the start of the MIC experiment, standard and test compound stock solutions were prepared in dimethyl sulfoxide (DMSO, Aldrich D2650) at a stock concentration of 5,120 μg/mL. The compound concentration range typically employed for each experiment was 128-0.06 μg/mL (2.5% final DMSO concentration). Clindamycin was used as a comparator in all experiments and each experiment was performed in triplicate. Specialized procedures were employed for streptococcal and anaerobic strains. All other bacterial strains were sub-cultured on blood agar plates (tryptic soy agar with 5% sheep blood, Hardy Diagnostics) and incubated overnight at 35° C. Organisms were suspended in cation-adjusted Mueller-Hinton broth (CaMHB, BD 212322) and optical density was adjusted to 0.5 McFarland standard. Suspensions were further diluted to obtain a final inoculum of 5×10^5 CFU/mL for broth microdilution experiments.

Series [1] deals with S. pyogenes ATCC 19615. It is filed as in vivo. The protocol:
The optical density of the bacterial suspension was adjusted to 0.1 at 600 nm using sterile BHIB and was then further diluted 1:1 in 10% hog gastric mucin (HGM, type III) to prepare the infecting inoculum in 5% HGM. Mice were infected by intraperitoneal injection of 250 μL, infecting inoculum, representing 1-2×10^6 CFU per animal. […] Animals were monitored for survival for seven days following infection.

The conditions of series [2]: mouse, microsomes.
A short description of series [3]: Plasma protein binding, species h. The following applies: human. The class given is in vitro ADME.
The subject of series [4] is S. pyogenes ATCC 19615. Nature of the series: Murine neutropenic thigh infection model. To be noted: neutropenic mouse thigh, S. pyogenes ATCC 19615, 24 h after a single intraperitoneal dose of 60 mg/kg.
Experimental: Animal studies: Animal experiments were performed at the Biology Research Infrastructure Laboratory of Harvard University following IACUC-approved protocols. Animals were maintained in accordance with National Research Council guidelines. Pathogen-free, 5-6-week-old, female CD-1 mice weighing 22-26 grams were obtained from Charles River Laboratories, Inc. (Kingston, N.Y.). Animals were acclimated for a minimum of three days prior to start of the studies. Mice were caged as a group of four per cage, were housed at 21-23° C. with humidity ranging from 30-70%, were exposed to 12-hour light and dark cycles, and were supplied with food and water ad libitum.
Mouse thigh infection studies: Mice were rendered neutropenic by administering cyclophosphamide intraperitoneally, 150 mg/kg four days prior, and 100 mg/kg one day prior to infection. Bacterial strains were cultured overnight on blood agar plates at 35° C. in 5% CO2. […] Homogenates were serially diluted and plated on blood agar plates (each sample was plated in duplicate), and bacterial counts (log10 CFU/thigh) were determined after incubating the plates overnight at 35° C. in 5% CO2. Each experiment was repeated twice, and mean values were calculated (n=4 mice per time point).
The test system of series [5] is Enterococcus faecium and Enterococcus faecalis strains resistant to vancomycin, linezolid, azithromycin, ciprofloxacin, levofloxacin, gentamicin, and …. The class given is cell-based. To be noted: panel of E. faecium and E. faecalis strains resistant to vancomycin, doxycycline. How it is done: as §1
The subject of the next series is E. coli MP-9 ΔTolC. Description: MIC (broth microdilution or agar dilution, CLSI). It is filed as cell-based. To be noted: Escherichia coli. Put shortly:
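Isolates other than streptococci and anaerobes, which had their own procedures, were grown overnight at 35° C on tryptic soy agar with 5% sheep blood. Suspensions were then diluted to a final inoculum of 5×10^5 CFU/mL in broth microdilution wells.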

Series [6] deals with mammalian cells (A549, K562, HCT116, HepG2). Nature of the series: Mammalian cell growth inhibition (CellTiter-Blue cell viability assay). The class given is cell-based, human. To be noted: cell-culture safety profiling; result in words. How it is done: (§2) Mammalian cell experiments: All compounds were dissolved in sterile DMSO to a stock concentration of 20 μM and aliquoted prior to freezing at −20° C. Aliquots were limited to a maximum of 3 freeze-thaw cycles. A549 (human pulmonary carcinoma; […]) cells were cultured in Dulbecco's Modified Eagle Medium (DMEM) supplemented with 10% fetal bovine serum. K562 (human chronic myelogenous leukemia; […]) cells were cultured in Iscove's Modification of DMEM (IMDM) media supplemented with 10% fetal bovine serum. HCT116 (human colorectal carcinoma; […]) cells were cultured in McCoy's 5a (Iwakata & Grace Modification) media supplemented with 10% fetal bovine serum. HepG2 (human hepatocellular carcinoma; […]) cells were cultured in Eagle's Minimum Essential Medium (EMEM) supplemented with 10% fetal bovine serum. All cell cultures were maintained in a 5% CO2 incubator at 37° C.
(§3) Growth inhibition was studied using the Promega CellTiter-Blue cell viability assay pursuant to the manufacturer's protocol. Briefly, cells were harvested, diluted, and mixed with the desired concentration of test compound. […] Plates were read on a SpectraMax i3 plate reader. GI50 values were determined by nonlinear regression using GraphPad Prism and represent the mean of at least three independent experiments.

Test in series [7]: as above
The class given is cell-based, human. The following applies: human, A549, K562, HCT116 and HepG2 cells; mammalian cells, 72 h. How it is done:
as §2, §3

The next series deals with E. faecalis ATCC 29212. Nature of the series: Spontaneous resistance in standard bacterial strains. The following applies: agar with 4×, 8×, 16× MIC, 3 days. The class given is cell-based. The protocol:
(§4) […]. Bacterial strains (S. aureus ATCC 29213, S. aureus MRSA, and E. faecalis ATCC 29212) were suspended in normal saline and optical density was adjusted to 1.50 at 600 nm. Bacterial counts were measured by serial dilution and plating. Bacterial inoculum (250 μL) was transferred to the media plate and was spread evenly. Plates were incubated at 37° C. for 3 days, and were observed daily for resistant colonies to emerge.

The test system of series [8] is S. aureus ATCC 29213, S. aureus MRSA. Described as above. To be noted: agar with 4×, 8×, 16× MIC, 3 days. It is filed as cell-based. How it is done:
as §4

The next series relates to HepG2. Description: Mitochondrial ToxGlo assay. The class given is cell-based, human. The protocol:
as §2
Mitochondrial toxicity assays were conducted using the Promega Mitochondrial ToxGlo assay, pursuant to the manufacturer's protocol.

In brackets after ≈: the same amount, converted by molar mass. Entries after “also recorded” stand apart in the source; their conditions may differ. Read-outs that look alike come from different tables or passages of the source. Where only a bound is given, the exact number is not on record here.

By MIC is commonly meant the lowest concentration that inhibits growth of the organism. The low end stands for a more susceptible organism, the high end for a less susceptible organism. In the series on E. faecalis VRE, `CCC[C@@H]1C[C@@H](C(=O)N[C@@H]([C@H]2O[C@H](SC)[C@H](O)[C@@H](O)[C@H]2O)[C@H](C)Cl)N(C)C1` [Clindamycin, clindamycin, reference compound] came in with an MIC of over 128 µg/mL.
Usually fraction unbound stands for the share of the substance not bound to proteins or other matrix. A higher fraction unbound goes with much free substance. The GI50 is the concentration that inhibits growth by half. Regarding `CSC1O[C@H]([C@H](NC(=O)[C@H]2NC[C@@H]3C[C@H](CC(C)C)CCO[C@H]32)[C@H](C)Cl)C(O)[C@@H](O)[C@H]1O` (some centres unmarked) [FSA-513018b], the Mice surviving is 8 with S. pyogenes ATCC 19615 [1] (1 mg/kg i.v., Day 1, n=8, clindamycin given as clindamycin phosphate); 7 in the series on S. pyogenes ATCC 19615 [1] (1 mg/kg i.v., Day 2, n=8); 7 in the series on S. pyogenes ATCC 19615 [1] (1 mg/kg i.v., Day 3, n=8); 7 in the series with S. pyogenes ATCC 19615 [1] (1 mg/kg i.v., Day 4, n=8); 7 with S. pyogenes ATCC 19615 [1] (1 mg/kg i.v., Day 5, n=8); 7 with S. pyogenes ATCC 19615 [1] (1 mg/kg i.v., Day 6, n=8). The Mice surviving is reported as 7 with S. pyogenes ATCC 19615 [1] (1 mg/kg i.v., Day 7, n=8); 8 in the series on S. pyogenes ATCC 19615 [1] (3 mg/kg i.v., Day 1, n=8); 8 with S. pyogenes ATCC 19615 [1] (3 mg/kg i.v., Day 2, n=8); 8 in the series on S. pyogenes ATCC 19615 [1] (3 mg/kg i.v., Day 3, n=8); 8 in the series with S. pyogenes ATCC 19615 [1] (3 mg/kg i.v., Day 4, n=8); 8 in the series with S. pyogenes ATCC 19615 [1] (3 mg/kg i.v., Day 5, n=8). Moreover, the Mice surviving with S. pyogenes ATCC 19615 [1] (3 mg/kg i.v., Day 6, n=8) is reported as 8; in the series on S. pyogenes ATCC 19615 [1] (3 mg/kg i.v., Day 7, n=8), 8; in the series with S. pyogenes ATCC 19615 [1] (10 mg/kg i.v., Day 1, n=8), 8; in the series on S. pyogenes ATCC 19615 [1] (10 mg/kg i.v., Day 2, n=8) it was 8; in the series on S. pyogenes ATCC 19615 [1] (10 mg/kg i.v., Day 3, n=8) it was 8; in the series on S. pyogenes ATCC 19615 [1] (10 mg/kg i.v., Day 4, n=8) it was 8. Further, the Mice surviving with S. pyogenes ATCC 19615 [1] (10 mg/kg i.v., Day 5, n=8) was 8; in the series on S. pyogenes ATCC 19615 [1] (10 mg/kg i.v., Day 6, n=8), 8; in the series with S. pyogenes ATCC 19615 [1] (10 mg/kg i.v., Day 7, n=8), 8. For the same molecule, the “rescue of infected animals” value with S. pyogenes ATCC 19615 [1] (S. pyogenes systemic infection, i.v. twice daily for two days) is “complete rescue”. For the same molecule, the tolerability entry in the series with S. pyogenes ATCC 19615 [1] (infected mice, 1, 3 or 10 mg/kg i.v. twice daily for two days, all dose levels) was “well-tolerated”. Also, the “Clint,mic” value in series [2] is 21. This molecule had a free fraction (fraction unbound) in series [3] of 0.08. Besides, the “reduction in bacterial burden vs clindamycin- and vehicle-treated controls” value with S. pyogenes ATCC 19615 [4] is “statistically significant reductions”. For the same molecule, the MICs in series [5] is at most 2 µg/mL. The molecule further gave a minimal inhibitory concentration (MIC) against E. coli MP-9 ΔTolC of 0.5 µg/mL (≈ 1.01 µM). Moreover, the “toxicity toward mammalian cells” value in [6] was “non-toxic”. The concentration for 50% growth inhibition (GI50) at 72 h in series [7] is over 50 µM. Further, the spontaneous resistance entry (in the series on E. faecalis ATCC 29212; in [8]) was “not observed; also recorded: No colonies were noted on any plate” in each case. The “effect on membrane integrity” value with HepG2 (HepG2, Mitochondrial ToxGlo) was “no effect”. Besides, in the series with HepG2 (HepG2, Mitochondrial ToxGlo (ATP production)), the “effect on mitochondrial function” value is listed as “no effect”.
